Test results taken from paper PMC4894917, “Differences in Enzymatic Properties of the Saccharomyces kudriavzevii and Saccharomyces uvarum Alcohol Acetyltransferases and Their Impact on Aroma-Active Compounds Production” (Frontiers in Microbiology, 2016).

How the values were obtained:
[1] = target: T1, ScAtf2p (Saccharomyces cerevisiae, UniProt P53296); experiment: acetate ester formation by headspace SPME gas chromatography, cell extract; type: biochemical; details: acetyl-CoA 0.8 mM, 50 mM potassium phosphate pH 7.5, 10% glycerol
T1 construct: gene ATF2; full-length untagged, pG-ScATF2-TDH3p in S. cerevisiae BY4741 atf1 atf2 iah1, cell extract (strain CLpScATF2)
T1 sequence (P53296 1-535): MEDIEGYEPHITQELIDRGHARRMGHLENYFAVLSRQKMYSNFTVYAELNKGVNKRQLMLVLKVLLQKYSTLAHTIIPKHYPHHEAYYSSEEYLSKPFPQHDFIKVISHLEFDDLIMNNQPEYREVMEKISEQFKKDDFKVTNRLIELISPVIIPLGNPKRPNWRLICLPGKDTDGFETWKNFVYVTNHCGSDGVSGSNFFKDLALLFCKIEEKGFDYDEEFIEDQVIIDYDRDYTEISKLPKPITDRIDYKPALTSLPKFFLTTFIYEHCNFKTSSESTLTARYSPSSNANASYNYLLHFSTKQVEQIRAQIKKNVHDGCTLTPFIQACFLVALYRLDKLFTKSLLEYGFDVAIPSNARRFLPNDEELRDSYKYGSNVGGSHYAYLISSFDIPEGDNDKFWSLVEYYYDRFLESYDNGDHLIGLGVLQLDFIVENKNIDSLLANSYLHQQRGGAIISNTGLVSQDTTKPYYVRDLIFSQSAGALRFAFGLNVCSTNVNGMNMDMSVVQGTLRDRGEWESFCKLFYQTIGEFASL

[2] = target: T2, SuAtf2p (Saccharomyces uvarum, UniProt A0ABN8WWD5); experiment: as above; type: biochemical; details: acetyl-CoA 0.8 mM, 50 mM potassium phosphate pH 7.5, 10% glycerol
T2 construct: gene SUVZ07G4070; full-length untagged, pG-SuATF2-TDH3p in S. cerevisiae BY4741 atf1 atf2 iah1, cell extract (strain CLpSuATF2); N-terminus MDSLEEY translated from printed primer pGSuATF2f
T2 sequence (A0ABN8WWD5 1-545): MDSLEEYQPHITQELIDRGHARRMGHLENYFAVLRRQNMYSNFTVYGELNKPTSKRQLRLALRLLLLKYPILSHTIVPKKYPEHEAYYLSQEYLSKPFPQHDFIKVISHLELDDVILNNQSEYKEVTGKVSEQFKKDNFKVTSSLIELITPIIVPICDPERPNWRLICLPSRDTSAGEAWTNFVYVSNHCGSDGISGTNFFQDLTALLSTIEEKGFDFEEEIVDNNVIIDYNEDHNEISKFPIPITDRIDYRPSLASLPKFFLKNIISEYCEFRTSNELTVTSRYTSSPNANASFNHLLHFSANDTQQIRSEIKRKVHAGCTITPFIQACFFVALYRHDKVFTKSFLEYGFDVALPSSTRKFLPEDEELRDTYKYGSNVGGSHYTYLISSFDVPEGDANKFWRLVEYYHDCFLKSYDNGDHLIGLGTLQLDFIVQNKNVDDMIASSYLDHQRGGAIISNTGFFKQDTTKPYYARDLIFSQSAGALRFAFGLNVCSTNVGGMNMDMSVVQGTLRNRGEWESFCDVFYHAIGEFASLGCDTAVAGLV

[3] = target: T3, SkAtf2p (Saccharomyces kudriavzevii, UniProt A0AA35JHW3); experiment: as above; type: biochemical; details: acetyl-CoA 0.8 mM, 50 mM potassium phosphate pH 7.5, 10% glycerol
T3 construct: gene SKDI07G4300; full-length untagged, pG-SkATF2-TDH3p in S. cerevisiae BY4741 atf1 atf2 iah1, cell extract (strain CLpSkATF2); N-terminus MDDIEEY translated from printed primer pGSkATF2f
T3 sequence (A0AA35JHW3 1-535): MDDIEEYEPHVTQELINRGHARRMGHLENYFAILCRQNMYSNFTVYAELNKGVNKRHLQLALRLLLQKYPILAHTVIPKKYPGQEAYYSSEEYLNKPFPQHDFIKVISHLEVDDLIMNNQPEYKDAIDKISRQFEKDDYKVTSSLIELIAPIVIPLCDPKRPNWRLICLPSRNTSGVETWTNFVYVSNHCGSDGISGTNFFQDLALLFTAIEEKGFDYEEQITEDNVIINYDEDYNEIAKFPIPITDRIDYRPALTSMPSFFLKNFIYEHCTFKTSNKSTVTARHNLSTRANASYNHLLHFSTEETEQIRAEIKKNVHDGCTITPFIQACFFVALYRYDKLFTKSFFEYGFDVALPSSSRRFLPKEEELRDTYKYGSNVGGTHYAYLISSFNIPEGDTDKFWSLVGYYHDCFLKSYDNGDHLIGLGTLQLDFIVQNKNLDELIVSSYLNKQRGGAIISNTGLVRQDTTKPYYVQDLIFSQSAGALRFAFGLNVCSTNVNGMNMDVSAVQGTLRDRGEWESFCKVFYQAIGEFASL

[4] = substrate: CC(C)CCO; experiment: isoamyl acetate formation by headspace SPME gas chromatography, cell extract; type: biochemical, Saccharomyces uvarum; details: acetyl-CoA 0.8 mM, 50 mM potassium phosphate pH 7.5, 10% glycerol, isoamyl alcohol 0.01-100 mM
Text: isoamyl acetate formation by headspace SPME gas chromatography, cell extract on SuAtf1p

[5] = substrate: CC(C)CCO; experiment: as above; type: biochemical, Saccharomyces cerevisiae; details: acetyl-CoA 0.8 mM, 50 mM potassium phosphate pH 7.5, 10% glycerol, isoamyl alcohol 0.01-100 mM
Text: isoamyl acetate formation by headspace SPME gas chromatography, cell extract on ScAtf1p

With `OCCc1ccccc1` [2-phenylethanol] the “acetate ester formation by headspace SPME gas chromatography, cell extract” value (from here on “acetate ester formation”) ([1]; 30 mM alcohol) was “all the strains that expressed the individual ATF1 and ATF2 orthologs exhibited activities”, the “acetate ester formation” value ([2]; 30 mM alcohol) was “the proportion of the enzyme activity of SkAtf2p and SuAtf2p to 2-phenylethanol” and the “acetate ester formation” value ([3]; 30 mM alcohol) was “the proportion of the enzyme activity of SkAtf2p and SuAtf2p to 2-phenylethanol”.

For `CC(C)CCO` [isoamyl alcohol], the “acetate ester formation” value ([1]; 100 mM alcohol) was “enzymes Atf2 showed considerably stronger activity toward isoamyl alcohol than the other substrates”, the “acetate ester formation” value ([2]; 100 mM alcohol) was “enzymes Atf2 showed considerably stronger activity toward isoamyl alcohol than the other substrates” and the “acetate ester formation” value ([3]; 100 mM alcohol) was “enzymes Atf2 showed considerably stronger activity toward isoamyl alcohol than the other substrates”.

B1: SuAtf1p (Saccharomyces uvarum) (protein)
chain: MNTYSEKTSLVQDECLAKMIQNGHSRRMGSVEDLYAALNRQKLYRNFSTYSELNDYCTKDQLTLALRNICLKNPTLLHIVLPARWPDYENYYLSTEYYSQPHPKHDYISVLPELKFDGVILNEQPEHNALMKQILQELKDNNGSYTAKVFKLTTALTIPYAGPTSPTWRLICLPEEGHTDKWKKFIFLSNHCMCDGRSSIHFFQDLRDELNNMKTPPKKLDYIFQYEKDYQLLRKLPEPIENMIDFRPPYMFIPKSLISGFIYSHLRFSSKGVCTRMDEIEKSDEVVTEIITISPSEFQKIKAIIKSNIPGKCTITPFLEVCWFVSLHKWGKFFKPLKFEWLTDVFIPADCRSLLPEDEEVRAMYRYGANVGFVDFTPWISEFNMNDSKENFWPLIAHYHEVISGAIKDKKHLNGLGFNIQGLVQKYVNIDKVMRDRALGKSRGGTLLSNVGIFHQSEETDSRYSIRDLAFGQFQGSWHQAFSLGVCSTNVKGMNIVISSTKNVVGSQESLEELCAMYKALLLNP
notes: full-length untagged, pG-SuATF1-TDH3p in S. cerevisiae BY4741 atf1 atf2 iah1, cell extract (strain CLpSuATF1); N-terminus MNTYSE translated from printed primer pGSuATF1f
B1 was tested, and the Km [4] was 92.9 ± 10.9 mM and the Vmax [4] was 0.00569 µmol/min/mg.

B2: ScAtf1p (Saccharomyces cerevisiae S288C) (protein)
chain: MNEIDEKNQAPVQQECLKEMIQNGHARRMGSVEDLYVALNRQNLYRNFCTYGELSDYCTRDQLTLALREICLKNPTLLHIVLPTRWPNHENYYRSSEYYSRPHPVHDYISVLQELKLSGVVLNEQPEYSAVMKQILEEFKNSKGSYTAKIFKLTTTLTIPYFGPTGPSWRLICLPEEHTEKWKKFIFVSNHCMSDGRSSIHFFHDLRDELNNIKTPPKKLDYIFKYEEDYQLLRKLPEPIEKVIDFRPPYLFIPKSLLSGFIYNHLRFSSKGVCMRMDDVEKTDDVVTEIINISPTEFQAIKANIKSNIQGKCTITPFLHVCWFVSLHKWGKFFKPLNFEWLTDIFIPADCRSQLPDDDEMRQMYRYGANVGFIDFTPWISEFDMNDNKENFWPLIEHYHEVISEALRNKKHLHGLGFNIQGFVQKYVNIDKVMCDRAIGKRRGGTLLSNVGLFNQLEEPDAKYSICDLAFGQFQGSWHQAFSLGVCSTNVKGMNIVVASTKNVVGSQESLEELCSIYKALLLGP
notes: full-length untagged, pG-ScATF1-TDH3p in S. cerevisiae BY4741 atf1 atf2 iah1, cell extract (strain CLpScATF1)
B2 gave a Km [5] of 32.2 ± 2.2 mM and a Vmax [5] of 0.00999 µmol/min/mg.
